Source: ChEMBL document CHEMBL4811258, “Potent Antimalarials with Development Potential Identified by Structure-Guided Computational Optimization of a Pyrrole-Based Dihydroorotate Dehydrogenase Inhibitor Series” (J Med Chem, 2021)
Values after ≈ are worked out from the molar mass of the structure shown.

Tests used:
[1] = Inhibition of Plasmodium falciparum DHODH expressed in Escherichia coli BL21-DE3 using L-dihydroorotate as substrate by steady-state DCIP method
[2] = Inhibition of Plasmodium vivax DHODH expressed in Escherichia coli BL21-DE3 using L-dihydroorotate as substrate by steady-state DCIP method
[3] = biological target: Dihydroorotate dehydrogenase (quinone), mitochondrial (Rattus norvegicus, UniProt Q63707); assay: Inhibition of rat DHODH up to 100 uM; conditions: up to 100 µM
[4] = biological target: Dihydroorotate dehydrogenase (quinone), mitochondrial (Mus musculus, UniProt O35435); assay: Inhibition of mouse DHODH up to 100 uM; conditions: up to 100 µM
[5] = Inhibition of dog DHODH up to 100 uM; design: species or system Canis lupus familiaris; conditions: up to 100 µM
[6] = tested on: L1210; assay: Cytotoxicity against mouse L1210 cells; format: cell-based
[7] = tested on: HepG2; assay: Cytotoxicity against human HepG2 cells; format: cell-based
[8] = biological target: Albumin (Bos taurus, UniProt P02769); assay: Binding affinity to bovine serum albumin by Albumax assay; format: ADME; conditions: cattle, isolated protein
[9] = Binding affinity to microsome (unknown origin); format: ADME; conditions: microsomes
[10] = Intrinsic clearance in mouse liver microsomes at 1 uM measured up to 4 hrs by LC-MS analysis; format: ADME, Microsome
[11] = Unbound intrinsic clearance in mouse liver microsomes at 1 uM measured up to 4 hrs by LC-MS analysis; format: ADME, Microsome
[12] = Half life in Swiss mouse at 20 mg/kg, po measured up to 24 hrs by LC-MS analysis; format: ADME, organism-based; conditions: in vivo
[13] = Tmax in Swiss mouse at 20 mg/kg, po measured up to 24 hrs by LC-MS analysis; format: ADME, organism-based; conditions: in vivo
[14] = Cmax in Swiss mouse at 20 mg/kg, po measured up to 24 hrs by LC-MS analysis; format: ADME, organism-based; design: route oral, dose 20 mg/kg, time <=24; conditions: in vivo
[15] = AUC (0 to infinity) in Swiss mouse at 20 mg/kg, po measured up to 24 hrs by LC-MS analysis; format: ADME, organism-based; design: route oral, dose 20 mg/kg, time <=24; conditions: in vivo
[16] = Plasma clearance in Sprague-Dawley rat at […], iv measured up to 24 hrs; format: ADME, organism-based
[17] = Volume of distribution at steady state in Sprague-Dawley rat at […], iv measured up to 24 hrs; format: ADME, organism-based; conditions: in vivo, read-out: Vdss
[18] = Apparent half life in Sprague-Dawley rat at 32 mg/kg, po measured up to 24 hrs; format: ADME, organism-based; conditions: in vivo, read-out: t1/2(app) (converted)
[19] = Tmax in Sprague-Dawley rat at 32 mg/kg, po measured up to 24 hrs; format: ADME, organism-based; conditions: in vivo
[20] = Cmax in Sprague-Dawley rat at 32 mg/kg, po measured up to 24 hrs; format: ADME, organism-based; design: route oral, dose 32 mg/kg, time <=24; conditions: in vivo
[21] = AUC (0 to infinity) in Sprague-Dawley rat at 32 mg/kg, po measured up to 24 hrs; format: ADME, organism-based; design: route oral, dose 32 mg/kg, time <=24; conditions: in vivo
[22] = Oral bioavailability in Sprague-Dawley rat at 32 mg/kg measured up to 24 hrs; format: ADME, organism-based; conditions: in vivo
[23] = tested on: Plasmodium falciparum; assay: Antiplasmodial activity against asexual blood stage Plasmodium falciparum D10 expressing yeast DHODH infected in human erythrocytes assessed as parasite killing; format: functional, organism-based
[24] = tested on: Plasmodium falciparum; assay: Antiplasmodial activity against asexual blood stage Plasmodium falciparum D10 expressing yeast DHODH infected in human erythrocytes assessed as parasite killing in presence of proguanil; format: functional, organism-based
[25] = tested on: Plasmodium falciparum; assay: Antiplasmodial activity against Plasmodium falciparum 3D7 Uganda infected in human erythrocytes assessed as parasite killing using albumax media measured after 72 hrs by SYBR Green assay; format: functional, organism-based; conditions: 3D7, 72 h
[26] = tested on: Plasmodium falciparum; assay: Antiplasmodial activity against Plasmodium falciparum Dd2 Uganda infected in human erythrocytes assessed as parasite killing using albumax media measured after 72 hrs by SYBR Green assay; format: functional, organism-based; conditions: Dd2, 72 h
[27] = tested on: Plasmodium falciparum; assay: Antiplasmodial activity against Plasmodium falciparum Uganda field isolated from patients infected in human erythrocytes assessed as parasite killing using albumax media measured after 72 hrs by SYBR Green assay; format: functional, organism-based
[28] = biological target: T1, Cytochrome P450 2C8 (Homo sapiens, UniProt P10632)
T1 sequence (P10632 whole entry): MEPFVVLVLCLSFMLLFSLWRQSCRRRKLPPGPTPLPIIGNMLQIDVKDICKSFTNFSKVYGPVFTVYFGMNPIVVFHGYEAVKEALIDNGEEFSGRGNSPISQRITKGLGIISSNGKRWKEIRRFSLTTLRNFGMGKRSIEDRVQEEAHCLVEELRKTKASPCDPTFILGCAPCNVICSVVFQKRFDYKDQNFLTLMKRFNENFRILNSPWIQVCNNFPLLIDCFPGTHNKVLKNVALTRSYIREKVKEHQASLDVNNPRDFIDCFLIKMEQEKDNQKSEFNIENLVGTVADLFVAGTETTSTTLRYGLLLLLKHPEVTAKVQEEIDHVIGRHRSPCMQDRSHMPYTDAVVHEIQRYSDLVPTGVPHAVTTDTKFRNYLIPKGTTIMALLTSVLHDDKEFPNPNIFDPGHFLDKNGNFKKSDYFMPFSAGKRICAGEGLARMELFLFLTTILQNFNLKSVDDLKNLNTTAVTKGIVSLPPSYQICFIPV

[29] = biological target: Cytochrome P450 3A4 (Homo sapiens, UniProt P08684)
[30] = buffer, pH 1.6, 1 h
[31] = simulated gi fluid, pH 6.5, 5 h
[32] = simulated gi fluid, pH 5.8, 5 h
[33] = human, plasma
[34] = rat, plasma
[35] = mouse, plasma
[36] = Plasma clearance in Swiss mouse at […], iv measured up to 24 hrs by LC-MS analysis; format: ADME, organism-based; conditions: dose 2.8 mg/kg
[37] = Volume of distribution at steady state in Swiss mouse at […], iv measured up to 24 hrs by LC-MS analysis; format: ADME, organism-based; conditions: in vivo, dose 2.8 mg/kg, read-out: Vdss
[38] = Oral bioavailability in Swiss mouse at 20 mg/kg measured up to 24 hrs by LC-MS analysis; format: ADME, organism-based; conditions: in vivo
[39] = Apparent half life in Sprague-Dawley rat at 28 mg/kg, po measured up to 24 hrs; format: ADME, organism-based; conditions: in vivo, read-out: t1/2(app) (converted)
[40] = Tmax in Sprague-Dawley rat at 28 mg/kg, po measured up to 24 hrs; format: ADME, organism-based; conditions: in vivo
[41] = Cmax in Sprague-Dawley rat at 28 mg/kg, po measured up to 24 hrs; format: ADME, organism-based; design: route oral, dose 28 mg/kg, time <=24; conditions: in vivo
[42] = AUC (0 to infinity) in Sprague-Dawley rat at 28 mg/kg, po measured up to 24 hrs; format: ADME, organism-based; design: route oral, dose 28 mg/kg, time <=24; conditions: in vivo
[43] = Oral bioavailability in Sprague-Dawley rat at 28 mg/kg measured up to 24 hrs; format: ADME, organism-based; conditions: in vivo
[44] = tested on: Plasmodium falciparum; assay: Antiplasmodial activity against asexual blood stage chloroquine and pyrimethamine-resistant Plasmodium falciparum Dd2 infected in human erythrocytes assessed as parasite killing; format: functional, organism-based
[45] = tested on: Plasmodium berghei; assay: Antiplasmodial activity against liver stage Plasmodium berghei berghei-ANKA-GFP-Luc-SMCON (Pb-Luc) assessed as parasite killing infected in HepG2-A16-CD8IEGF cells; format: functional, organism-based
[46] = tested on: Plasmodium falciparum
[47] = human, caco-2, pH 7.4
[48] = human, caco-2, pH 7.4; remark: listed apart in the source
[49] = Apparent half life in Sprague-Dawley rat at 31 mg/kg, po measured up to 24 hrs; format: ADME, organism-based; conditions: in vivo, read-out: t1/2(app) (converted)
[50] = Tmax in Sprague-Dawley rat at 31 mg/kg, po measured up to 24 hrs; format: ADME, organism-based; conditions: in vivo
[51] = Cmax in Sprague-Dawley rat at 31 mg/kg, po measured up to 24 hrs; format: ADME, organism-based; design: route oral, dose 31 mg/kg, time <=24; conditions: in vivo
[52] = AUC (0 to infinity) in Sprague-Dawley rat at 31 mg/kg, po measured up to 24 hrs; format: ADME, organism-based; design: route oral, dose 31 mg/kg, time <=24; conditions: in vivo
[53] = Oral bioavailability in Sprague-Dawley rat at 31 mg/kg measured up to 24 hrs; format: ADME, organism-based; conditions: in vivo
[54] = biological target: T2, Cytochrome P450 2B6 (Homo sapiens, UniProt P20813)
T2 sequence (P20813 whole entry): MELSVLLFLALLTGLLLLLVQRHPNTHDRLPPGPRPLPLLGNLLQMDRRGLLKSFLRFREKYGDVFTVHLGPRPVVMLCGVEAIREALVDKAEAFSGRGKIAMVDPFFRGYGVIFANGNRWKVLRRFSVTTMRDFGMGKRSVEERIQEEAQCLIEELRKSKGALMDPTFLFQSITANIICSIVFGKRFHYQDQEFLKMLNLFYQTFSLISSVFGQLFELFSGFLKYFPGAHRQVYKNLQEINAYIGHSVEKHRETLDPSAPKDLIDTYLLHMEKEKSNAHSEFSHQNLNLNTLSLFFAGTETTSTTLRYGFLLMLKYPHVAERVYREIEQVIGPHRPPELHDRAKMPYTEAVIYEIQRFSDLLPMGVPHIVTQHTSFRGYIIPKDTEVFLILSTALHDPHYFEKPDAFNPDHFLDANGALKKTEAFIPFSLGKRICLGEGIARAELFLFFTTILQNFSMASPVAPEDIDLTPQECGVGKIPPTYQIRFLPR

[55] = buffer, pH 7.4, 5 h
[56] = in vitro; conditions: rat, blood and plasma
[57] = in vitro; conditions: mouse, blood and plasma

Sequence of Dihydroorotate dehydrogenase (quinone), mitochondrial (Rattus norvegicus, UniProt Q63707) (Q63707 whole entry): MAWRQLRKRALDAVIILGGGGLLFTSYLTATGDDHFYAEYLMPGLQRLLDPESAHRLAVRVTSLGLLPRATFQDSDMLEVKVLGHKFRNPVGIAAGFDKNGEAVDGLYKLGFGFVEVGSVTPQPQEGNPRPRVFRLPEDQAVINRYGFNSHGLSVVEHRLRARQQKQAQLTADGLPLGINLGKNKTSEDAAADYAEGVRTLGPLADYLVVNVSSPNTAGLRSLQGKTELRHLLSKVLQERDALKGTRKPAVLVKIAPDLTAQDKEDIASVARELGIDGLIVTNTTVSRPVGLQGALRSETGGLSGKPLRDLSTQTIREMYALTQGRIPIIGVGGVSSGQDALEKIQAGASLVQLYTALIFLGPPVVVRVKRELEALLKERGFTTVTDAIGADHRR
Sequence of Dihydroorotate dehydrogenase (quinone), mitochondrial (Mus musculus, UniProt O35435) (O35435 whole entry): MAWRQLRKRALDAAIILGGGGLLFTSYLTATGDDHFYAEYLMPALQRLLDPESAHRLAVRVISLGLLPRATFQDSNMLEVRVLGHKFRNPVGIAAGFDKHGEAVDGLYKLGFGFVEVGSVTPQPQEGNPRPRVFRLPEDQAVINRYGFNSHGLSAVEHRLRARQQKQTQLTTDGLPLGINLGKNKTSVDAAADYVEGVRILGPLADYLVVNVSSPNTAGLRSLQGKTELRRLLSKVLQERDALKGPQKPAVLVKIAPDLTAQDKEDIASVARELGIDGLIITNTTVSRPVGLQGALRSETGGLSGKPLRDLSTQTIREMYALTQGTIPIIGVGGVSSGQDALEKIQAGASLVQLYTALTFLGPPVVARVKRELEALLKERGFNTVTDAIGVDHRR
Sequence of Albumin (P02769 whole entry): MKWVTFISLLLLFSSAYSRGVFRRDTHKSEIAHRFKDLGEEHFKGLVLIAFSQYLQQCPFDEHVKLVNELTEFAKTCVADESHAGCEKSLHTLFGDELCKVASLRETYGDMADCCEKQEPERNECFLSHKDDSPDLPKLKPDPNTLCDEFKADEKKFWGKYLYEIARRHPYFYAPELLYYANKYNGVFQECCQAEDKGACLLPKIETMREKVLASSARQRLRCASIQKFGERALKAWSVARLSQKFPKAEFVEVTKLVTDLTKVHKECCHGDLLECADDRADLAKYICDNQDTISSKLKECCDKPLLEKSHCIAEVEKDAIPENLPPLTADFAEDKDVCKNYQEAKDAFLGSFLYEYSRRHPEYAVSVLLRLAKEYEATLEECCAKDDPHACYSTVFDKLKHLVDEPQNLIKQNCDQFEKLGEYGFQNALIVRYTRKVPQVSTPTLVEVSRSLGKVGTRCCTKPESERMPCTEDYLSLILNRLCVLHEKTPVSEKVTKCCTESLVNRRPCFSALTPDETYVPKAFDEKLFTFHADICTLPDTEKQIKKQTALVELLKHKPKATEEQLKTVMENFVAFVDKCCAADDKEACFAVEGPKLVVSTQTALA
Sequence of Cytochrome P450 3A4 (P08684 whole entry): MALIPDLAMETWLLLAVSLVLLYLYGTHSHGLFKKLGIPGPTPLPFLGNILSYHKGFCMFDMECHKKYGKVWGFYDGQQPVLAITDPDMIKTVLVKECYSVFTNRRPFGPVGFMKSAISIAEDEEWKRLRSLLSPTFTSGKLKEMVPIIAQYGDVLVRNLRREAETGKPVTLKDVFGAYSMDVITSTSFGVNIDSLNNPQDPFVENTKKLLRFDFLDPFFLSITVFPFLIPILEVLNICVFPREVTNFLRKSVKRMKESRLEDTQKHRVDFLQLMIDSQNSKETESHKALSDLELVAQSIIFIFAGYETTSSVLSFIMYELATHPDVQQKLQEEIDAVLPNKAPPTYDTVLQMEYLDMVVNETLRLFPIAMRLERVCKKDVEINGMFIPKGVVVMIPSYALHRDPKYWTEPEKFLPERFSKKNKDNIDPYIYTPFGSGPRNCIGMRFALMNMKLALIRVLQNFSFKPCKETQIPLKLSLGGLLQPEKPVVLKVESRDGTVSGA

Row | Compound | IC50 [1] | IC50 [2] | inhibition (INH) [3] | inhibition (INH) [4] | inhibition (INH) [5] | Activity [6] | Activity [7] | Activity [8] | Activity [9] | Intrinsic clearance [10] | CL free [11] | half-life [12] | Tmax [13] | Cmax [14] | AUC(0-inf) [15] | IC50 [28] | TDI [29] | PPB [33] | PPB [34] | PPB [35] | also measured
1 | Cc1c(Cc2ccc(C(F)(F)F)nc2)c[nH]c1C(=O)NC(C)c1cnn(C)c1 (stereo in doubt; form 1) | 46 nM | 3.9 nM | Not Active | Not Active | Not Active | Non-Toxic | Non-Toxic | 49.5% | 44.8% | 41 µL/min/mg | 75 µL/min/mg | 3.5 h | 1 h | 36 µM | 217 µM·h | > 20000 nM | Not Active | 83% | 95.1% | 93.6% | clearance at 24 h ([16]; dose 2.8 mg/kg): 2.4 mL/min/kg; Vd at 24 h ([17]; dose 2.8 mg/kg): 0.87 L/kg; half-life [18]: 3.7 h; Tmax [19]: 3.5 h; Cmax [20]: 35 µM; AUC(0-inf) [21]: 360 µM·h; bioavailability [22]: 61%; EC50 [23]: > 10000 nM; EC50 [24]: > 10000 nM; EC50 [25]: 6.2 nM; EC50 [26]: 5.9 nM; EC50 [27]: 9.8 nM; solubility [30]: 113 µg/mL (≈ 289 µM); solubility [31]: 60 µg/mL (≈ 153 µM); solubility [32]: 158 µg/mL (≈ 404 µM)
2 | Cc1cc(C(C)NC(=O)c2[nH]cc(Cc3ccc(C(F)(F)F)nc3)c2C)no1 (stereo in doubt; form 1) |  | 7.2 nM | Not Active | Not Active | Not Active | Non-Toxic | Non-Toxic | 75% | 43.3% | 63 µL/min/mg | 111 µL/min/mg | 2.3 h | 1 h | 13 µM | 66 µM·h |  |  | 94.7% | 93.7% | 92.2% | clearance at 24 h [36]: 7.7 mL/min/kg; Vd at 24 h [37]: 1.4 L/kg; bioavailability [38]: 61%; half-life [39]: 4.1 h; Tmax [40]: 4.3 h; Cmax [41]: 16 µM; AUC(0-inf) [42]: 160 µM·h; bioavailability [43]: 43%; EC50 [44]: 8.7 nM; EC50 [45]: 8.3 nM; EC50 [46]: 9.3 nM; Papp [47]: 48 10^-6 cm/s; Papp [48]: 57 10^-6 cm/s
3 | Cc1c(Cc2ccc(C(F)(F)F)nc2)c[nH]c1C(=O)NC(C)c1cn[nH]c1 (stereo in doubt; form 1) | 47 nM | 43 nM | Not Active | Not Active | Not Active | Non-Toxic | Non-Toxic | 49.5% | 40.5% | 31 µL/min/mg | 52 µL/min/mg | 4.4 h | 1 h | 6.4 µM | 65 µM·h | 18300 nM | Active | 84% | 91.4% | 92.1% | clearance at 24 h ([16]; dose 2.9 mg/kg): 6.2 mL/min/kg; Vd at 24 h ([17]; dose 2.9 mg/kg): 1.7 L/kg; half-life [49]: 3.4 h; Tmax [50]: 3 h; Cmax [51]: 2.4 µM; AUC(0-inf) [52]: 22 µM·h; bioavailability [53]: 10%; EC50 [44]: 2.4 nM; EC50 [46]: 4.5 nM; IC50 [54]: > 20000 nM; solubility [30]: 81 µg/mL (≈ 215 µM); solubility [31]: 34 µg/mL (≈ 90.1 µM); solubility [32]: 81 µg/mL (≈ 215 µM); solubility [55]: 23 µg/mL (≈ 60.9 µM); blood plasma ratio [56]: 1.3; blood plasma ratio [57]: 1.4
